Assay results as given in PMC5340622 (Cancer discovery, 2016).
pIC50: −log10 of the molar value.

What was measured:
[1] = tested on: MCF7 inducible HA-ER S463P tumors; assay: MCF7 inducible HA-ER S463P xenograft; assay type: in vivo, mice; settings: fulvestrant 200mg/kg twice weekly s.c.
MCF7 WT cells = assay: Proliferation assay; assay type: cell-based; settings: Homo sapiens, MCF7, read-out: IC50, growth inhibition
E380Q mutant ER = assay: ERE-luciferase inhibition, doxycycline-induced E380Q ER in MCF7 cells; assay type: cell-based; settings: MCF7, regular medium
S463P mutant ER = assay: ERE-luciferase inhibition, doxycycline-induced S463P ER in MCF7 cells; assay type: cell-based; settings: MCF7, regular medium
[2] = tested on: MCF7 inducible HA-ER E380Q tumors; assay: MCF7 inducible HA-ER E380Q xenograft; assay type: in vivo, mice; settings: fulvestrant 200mg/kg twice weekly s.c.
in vivo = settings: mouse, serum, other: AZD9496 oral (gavage); fulvestrant subcutaneous
[3] = tested on: MCF7 inducible HA-ER WT tumors; assay: MCF7 inducible HA-ER WT xenograft; assay type: in vivo, mice; settings: fulvestrant 200mg/kg twice weekly s.c.
[4] = tested on: WT and mutant cell lines (MCF7); assay: Proliferation of WT and mutant ER MCF7 cell lines with other SERDs; assay type: cell-based; settings: WT and all mutant cell lines

| Structure (SMILES) | tumor growth inhibition [1] | pIC50 (MCF7 WT cells) | fold higher IC99 as compared to WT (E380Q mutant ER) [fold] | fold higher IC99 as compared to WT (S463P mutant ER) [fold] | tumor growth inhibition [2] | AUC (in vivo) [µM·h] | Cmax (in vivo) [µM] | tumor growth inhibition [3] | inhibition of cell proliferation [4] |
| --- | --- | --- | --- | --- | --- | --- | --- | --- | --- |
| C[C@]12CC[C@@H]3c4ccc(O)cc4C[C@@H](CCCCCCCCC[S+]([O-])CCCC(F)(F)C(F)(F)F)[C@H]3[C@@H]1CC[C@@H]2O (some centres unmarked) [fulvestrant] | fully inhibited the growth | 9.40 | 2 | 2 | fully inhibited the growth | 5.29 | 0.65 | fully inhibited the growth | – |
| CC/C(=C(/c1ccc(/C=C/C(=O)O)cc1)c1ccc2[nH]ncc2c1)c1ccc(F)cc1Cl [GDC-0810] | – | – | – | – | – | – | – | – | capable of inhibiting cell proliferation by all mutants |
| C[C@@H]1Cc2c([nH]c3ccccc23)[C@@H](c2c(F)cc(/C=C/C(=O)O)cc2F)N1CC(C)(C)F [AZD9496, (E)-3-(3,5-Difluoro-4-((1R,3R)-2-(2-fluoro-2-methylpropyl)-3-methyl-2,3,4,9-tetra hydro-1H–pyrido[3,4-b]indol-1-yl)phenyl)acrylic Acid] | – | 9.40 | – | – | – | 218 | 59 | – | capable of inhibiting cell proliferation by all mutants |
| C[C@]12C[C@H](c3ccc(OCCCCCS(=O)(=O)CCCC(F)(F)C(F)(F)F)cc3)[C@@H]3c4ccc(O)cc4CC[C@H]3[C@@H]1CC[C@@H]2O [RU58668] | – | – | – | – | – | – | – | – | capable of inhibiting cell proliferation by all mutants |
